From patent US20040096855A1, “Genes” (priority 2001, published 2004)
One block for each compound: values may come before it.

Columns and labels:
WM266.4 = experiment: Inhibition of cell growth, sulphorhodamine B staining; format: cell-based, human; details: WM266.4 melanoma cells (BRAF V599D)
Colo 829 = experiment: as above; format: cell-based, human; details: Colo 829 melanoma cells (BRAF V599E)
Procedure: (§1) Colo 829 cells are a melanoma cell line that harbours a V599E mutation in the BRAF gene and BE cells are a colorectal line that harbour a G463 mutation in the BRAF gene (Davies et al., 2002). As we have shown, both of these mutations are activating (Davies et al., 2002). Finally, we tested the effects of these inhibitors on DNA synthesis.
(§2) Cell lines were incubated in the presence of increasing levels of BAY 43-9006 and the levels of cell growth were determined by sulphorhodamine B staining. The IC50 values were determined by non-linear regression analysis and are indicated.

BE = experiment: as above; format: cell-based, human; details: BE colorectal cells (BRAF G463 mutation)
Procedure: as §1, §2

[1] = tested on: ERK activity in WM266.4 cells; experiment: Active ERK levels by Western blot with ppERK antibody; format: cell-based, human; details: 10 μM compound
Procedure: WM266.4 or A375P cells were treated with 10 μM U0126, 10 μM BAY 43-9006 or DMSO as a control. Equivalent amounts of cellular proteins were resolved on SDS-gels and the levels of active ERK were determined using the ppERK antibody.
FIG. 6. Ablation of BRAF, but not CRAF blocks ERK activity in melanoma cells. WM-266.4 or Colo 829 cells were treated with a BRAF specific siRNA probe (BRAF), or the scrambled control (sBRAF), or a CRAF specific probe (CRAF), or its scrambled control (sCRAF), or oligofectamine (oligo) or left untreated (control) as indicated. The cells were incubated for the times indicated, and the Colo 829 cells were treated for 24hours. The levels of ERK activity in equivalent amounts of cell extract was determined by Western blotting with the ppERK antibody.
In order to validate BRAF as a target in cancer, it is first tested whether the growth of cells that express activated, mutant forms of BRAF required the RAF-MEK-ERK signaling pathway for growth. To this end, melanoma and colorectal cell lines that harbour mutations in the BRAF gene are treated with pharmacological agents that block signaling through this pathway. Two compounds are tested. One is the compound U0126, which is a MEK inhibitor and which therefore uncouples RAF-ERK signaling in cells (Sebolt-Leopold et al., 1999). BAY 43-9006 os also tested. This is an inhibitor of RAF proteins (Lyons et al., 2001). […]

WM-266.4 cells [2] = experiment: DNA synthesis, [3H]-thymidine incorporation; format: cell-based, human; details: 10 μM, 48 hours
Procedure: FIG. 4. Inhibition of cell growth by pharmacological agents. WM-266.4 cells were incubated in the presence of U0126 (10 μM) or BAY 43-9006 (10 μM) or the vehicle control (DMSO). After 48 hours, DNA synthesis was determined by incubating the cells with [^3H]-thymidine and the levels of thymidine incorporated into the cellular DNA was determined.
as §1

ERK (Mawi cells) = details: colorectal, Ras wt, B-Raf V599E
WM-266.4 cells [3] = experiment: Cell cycle analysis by FACS (propridium iodide); format: cell-based, human; details: 96 hours
Procedure: FIG. 7. Ablation of BRAF, but not CRAF induces apoptosis in melanoma cells. WM-266.4 cells were treated with a BRAF specific siRNA probe (BRAF), or the scrambled control (sBRAF), or a CRAF specific siRNA probe (CRAF), or U0126, or […] (oligo) or left untreated (control) as indicated. The cells were incubated for 96 hours and the cell cycle profile was analysed by FACS, or PARP expression was examined by Western blotting.
Finally, we examined how BRAF ablation affected cell growth, examining the effects on apoptosis in WM-266.4 cells. For these studies, the cells were fixed in 70% ethanol, stained with propridium iodide and their cell cycle profiles were examined by fluorescent activated cell sorting (FACS). Using this analysis, the apoptotic cells appear in the sub-G1 peak. In these cells, spontaneous apoptosis is very low, with less than 1% of the cell appearing in the sub-G1 peak (FIG. 7, table 5). […] We also examined PARP cleavage, a marker of the induction of apoptosis.
WM-266.4 cells were treated with U0126, DMSO, siRNA to BRAF, siRNA to CRAF or the scrambled siRNA control. The cells were incubated for 96 hours and the cells were fixed and stained with propridium iodide for cell cycle analysis by FACS. The proportion of cells in each phase of the cell cycle is shown.

ERK (CHL cells) = details: melanoma, B-Raf wt
ERK (A2058 cells) = details: A2058, melanoma; B-Raf V599E
ERK (colo741 cells) = details: colo741, colorectal; B-Raf V599E
Mawi = details: colorectal, Ras wt, B-Raf V599E
From the text: (§3) The second approach is to examine the effects of the compound U0126, an inhibitor of MEK1/2, the only known substrates for B-Raf.

A2058 = details: A2058, melanoma; B-Raf V599E
From the text: as §3

WM-266-4/WM-115 = details: WM-266-4/WM-115, melanoma; Ras b; B-Raf V599D
From the text: as §3

SW620 = details: SW620, colorectal; Ras onc; B-Raf wt
From the text: as §3

SK-MEL-28 = details: SK-MEL-28, melanoma; Ras b; B-Raf V599E
From the text: as §3

CHL = details: melanoma, B-Raf wt
From the text: as §3

NCI-H2087 = details: NCI-H2087, NSCLC cell line pair; Ras onc; B-Raf L596V
From the text: as §3

colo741 = details: colo741, colorectal; B-Raf V599E
From the text: as §3

ERK (SK-MEL-28 cells) = details: SK-MEL-28, melanoma; Ras b; B-Raf V599E
[4] = tested on: ERK (WM-266-4/WM-115 cells); details: WM-266-4/WM-115, melanoma; Ras b; B-Raf V599D
ERK (NCI-H2087 cells) = details: NCI-H2087, NSCLC cell line pair; Ras onc; B-Raf L596V
cellular Ras = experiment: cell-based or functional assay

IC50 (Colo 829): 5.1 µM
IC50, inhibition of cell growth (Colo 829): low micro-molar range
Compound: CNC(=O)c1cc(Oc2ccc(NC(=O)Nc3ccc(Cl)c(C(F)(F)F)c3)cc2)ccn1 [BAY 43-9006]
IC50 (WM266.4): 6.1 µM
IC50 (WM266.4; listed as BAY 43-9002): ~6.1 µM
IC50 (BE): 5.4 µM
IC50, inhibition of cell growth (BE): low micro-molar range
ERK activity (ppERK Western blot) [1]: strongly suppressed
DNA synthesis ([3H]-thymidine incorporation) (WM-266.4 cells [2]): strongly suppressed

Compound: N#CC(=C(/N)Sc1ccccc1N)/C(C#N)=C(\N)Sc1ccccc1N [U0126]
UO/ERK-inhib (ERK (Mawi cells)): >90%
Proportion of events, G1 (WM-266.4 cells [3]): 87.5%
Proportion of events, G2/M (WM-266.4 cells [3]): 7.8%
Proportion of events, S (WM-266.4 cells [3]): 1.3%
Proportion of events, Sub-G1 (WM-266.4 cells [3]; sub-G1 = apoptotic cells): ~3.5%
UO/ERK-inhib (ERK (CHL cells)): >90%
UO/ERK-inhib (ERK (A2058 cells)): 80%
UO/ERK-inhib (ERK (colo741 cells)): 90%
U0 inhibit S (Mawi): 80%
U0 inhibit S (A2058): 68%
U0 inhibit S (WM-266-4/WM-115): >99%
U0 inhibit S (SW620): 92%
U0 inhibit S (SK-MEL-28): 98%
U0 inhibit S (CHL): 51%
U0 inhibit S (NCI-H2087): 56%
U0 inhibit S (colo741): 76%
UO/ERK-inhib (ERK (SK-MEL-28 cells)): >90%
UO/ERK-inhib [4]: >90%
ERK activity (ppERK Western blot) [1]: strongly suppressed
DNA synthesis ([3H]-thymidine incorporation) (WM-266.4 cells [2]): strongly suppressed
UO/ERK-inhib (ERK (NCI-H2087 cells)): >90%

inhibition of growth (percentage of cells that do not incorporate BrdU) after micro-injection of Y13-259; A2058, melanoma, Ras not given, B-Raf V599E (cellular Ras): 0%
inhibition of growth (percentage of cells that do not incorporate BrdU) after micro-injection of Y13-259; CaCO2, colorectal, Ras wt, B-Raf wt (cellular Ras): 60%
inhibition of growth (percentage of cells that do not incorporate BrdU) after micro-injection of Y13-259; DLD1, colorectal, Ras K13Asp/wt, B-Raf wt (cellular Ras): 40%
inhibition of growth (percentage of cells that do not incorporate BrdU) after micro-injection of Y13-259; HCT-116, colorectal, Ras K13 Asp, B-Raf wt (cellular Ras): 95%
inhibition of growth (percentage of cells that do not incorporate BrdU) after micro-injection of Y13-259; HMV11-Riken, melanoma, Ras not given, B-Raf wt (cellular Ras): 100%
inhibition of growth (percentage of cells that do not incorporate BrdU) after micro-injection of Y13-259; HT29, colorectal, Ras wt, B-Raf V599E (cellular Ras): 15%
inhibition of growth (percentage of cells that do not incorporate BrdU) after micro-injection of Y13-259; JW2, colorectal, Ras K12, B-Raf wt (cellular Ras): 79%
inhibition of growth (percentage of cells that do not incorporate BrdU) after micro-injection of Y13-259; LS174T, colorectal, Ras K12Asp/wt, B-Raf wt (cellular Ras): 84%
inhibition of growth (percentage of cells that do not incorporate BrdU) after micro-injection of Y13-259; LS411N, colorectal, Ras not given, B-Raf V599E (first value) (cellular Ras): 0%
inhibition of growth (percentage of cells that do not incorporate BrdU) after micro-injection of Y13-259; LS411N, colorectal, Ras not given, B-Raf V599E (second value) (cellular Ras): 0%
inhibition of growth (percentage of cells that do not incorporate BrdU) after micro-injection of Y13-259; Malme, melanoma, Ras not given, B-Raf V599E (cellular Ras): 0%
inhibition of growth (percentage of cells that do not incorporate BrdU) after micro-injection of Y13-259; Mawi, colorectal, Ras wt, B-Raf V599E (cellular Ras): 5%
inhibition of growth (percentage of cells that do not incorporate BrdU) after micro-injection of Y13-259; NCI-H2087, NSCLC cell line pair, Ras onc, B-Raf L596V (cellular Ras): 77%
inhibition of growth (percentage of cells that do not incorporate BrdU) after micro-injection of Y13-259; SK-MEL-28, melanoma, Ras 'b', B-Raf V599E (cellular Ras): 4%
inhibition of growth (percentage of cells that do not incorporate BrdU) after micro-injection of Y13-259; SK-Mel2, melanoma, Ras not given, B-Raf wt (cellular Ras): 70%
inhibition of growth (percentage of cells that do not incorporate BrdU) after micro-injection of Y13-259; SW480, colorectal, Ras K12, B-Raf wt (cellular Ras): 57%
inhibition of growth (percentage of cells that do not incorporate BrdU) after micro-injection of Y13-259; SW620, colorectal, Ras onc, B-Raf wt (cellular Ras): 92%
inhibition of growth (percentage of cells that do not incorporate BrdU) after micro-injection of Y13-259; WM-266-4/WM-115, melanoma, Ras 'b', B-Raf V599D (cellular Ras): 10%
inhibition of growth (percentage of cells that do not incorporate BrdU) after micro-injection of Y13-259; colo205, colorectal, Ras wt, B-Raf V599E (cellular Ras): 3%
inhibition of growth (percentage of cells that do not incorporate BrdU) after micro-injection of Y13-259; colo741, colorectal, Ras not given, B-Raf V599E (cellular Ras): 0%
Compound: monoclonal antibody Y13-259
